pEC50: −log10 of the molar value.
Tests used:
human calcium receptor = molecular target: T1, human calcium receptor (Homo sapiens, UniProt P41180); experiment: Activity on calcium receptors: fluo-3 fluorescence in HEK293 cells transfected with human calcium receptor gene; type: cell-based; settings: HEK293 cells transfected with plasmid pHuPCaR4.0 (human calcium receptor gene), loaded with fluo-3; 1 mM CaCl2, 1 mM MgCl2
T1 construct: expressed in transfected cells; host or cells: HEK293
T1 sequence (P41180 20-1078): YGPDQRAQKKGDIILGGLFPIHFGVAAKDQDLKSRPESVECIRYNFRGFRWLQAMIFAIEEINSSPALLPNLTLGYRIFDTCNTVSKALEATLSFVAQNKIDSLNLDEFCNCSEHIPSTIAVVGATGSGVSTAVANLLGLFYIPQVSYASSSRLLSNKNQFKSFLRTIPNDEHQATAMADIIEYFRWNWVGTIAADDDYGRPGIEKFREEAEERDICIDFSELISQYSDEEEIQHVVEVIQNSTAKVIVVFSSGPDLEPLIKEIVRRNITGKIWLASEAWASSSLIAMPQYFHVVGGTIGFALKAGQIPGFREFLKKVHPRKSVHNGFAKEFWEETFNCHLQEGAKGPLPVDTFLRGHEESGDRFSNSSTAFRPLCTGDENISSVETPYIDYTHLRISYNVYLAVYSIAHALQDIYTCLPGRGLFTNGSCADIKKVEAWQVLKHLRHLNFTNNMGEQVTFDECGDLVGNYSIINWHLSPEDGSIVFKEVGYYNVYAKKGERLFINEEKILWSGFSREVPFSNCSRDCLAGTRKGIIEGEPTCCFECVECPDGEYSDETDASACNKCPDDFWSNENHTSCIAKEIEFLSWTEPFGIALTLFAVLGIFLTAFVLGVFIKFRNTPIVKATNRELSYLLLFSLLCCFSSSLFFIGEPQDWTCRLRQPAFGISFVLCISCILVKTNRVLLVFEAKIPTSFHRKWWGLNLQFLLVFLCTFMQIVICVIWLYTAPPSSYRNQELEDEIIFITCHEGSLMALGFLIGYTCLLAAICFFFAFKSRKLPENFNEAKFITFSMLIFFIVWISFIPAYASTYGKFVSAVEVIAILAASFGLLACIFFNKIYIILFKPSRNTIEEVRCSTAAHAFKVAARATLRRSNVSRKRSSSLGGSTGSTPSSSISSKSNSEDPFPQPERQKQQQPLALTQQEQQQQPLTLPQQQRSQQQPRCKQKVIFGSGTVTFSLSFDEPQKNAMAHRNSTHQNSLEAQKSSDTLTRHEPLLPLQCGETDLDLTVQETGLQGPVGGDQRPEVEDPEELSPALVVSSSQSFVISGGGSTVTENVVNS
Outline: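 HEK293 cells transfected with human calcium receptor plasmid, loaded 1 h at 37 °C with about 5 μM fluo-3/AM. Cells then rinsed into HEPES-buffered HBSS with 1 mM CaCl2 and 1 mM MgCl2. Fluorescence read at 485/540 nm after compound addition.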

normal male SD rats = experiment: Plasma Ca^2+ level of rats after single oral administration; type: in vivo; settings: rat, mean of six animals; for Plasma Ca^2+ (mmol/l) 1 hr: 1 hr after single oral dose 30 μmol/kg; for Plasma Ca^2+ (mmol/l) 2 hr: 2 hr after single oral dose 30 μmol/kg; for Plasma Ca^2+ (mmol/l) 4 hr: 4 hr after single oral dose 30 μmol/kg; for Plasma Ca^2+ (mmol/l) 8 hr: 8 hr after single oral dose 30 μmol/kg; for Plasma Ca^2+ (mmol/l) 23 hr (footnote *c, 24 hr column): 23 hr after single oral dose 30 μmol/kg; for Plasma Ca^2+ (mmol/l) 0 hr: 0 hr = before oral administration of 30 μmol/kg; for Plasma Ca^2+ (mmol/l) 24 hr: 24 hr after single oral dose 30 μmol/kg
Outline: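 Normal male SD rats (n=6/group) received a single oral dose of 30 μmol/kg in 10% cyclodextrin or, for some compounds, 1% sodium-CMC; vehicle controls received 2.5 ml/kg. Tail blood was drawn pre-dose and at 30 min and 1, 2, 4, 8 and 24 h for plasma Ca^2+ and serum PTH. PTH was compared with vehicle by Steel's test.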

[1] = vehicle 10% cyclodextrin (** 1% sodium-CMC)

Row | pEC50 (human calcium receptor) | SMILES | Plasma Ca^2+ (mmol/l) 1 hr (normal male SD rats; [1]) | Plasma Ca^2+ (mmol/l) 2 hr (normal male SD rats; [1]) | Plasma Ca^2+ (mmol/l) 4 hr (normal male SD rats; [1]) | Plasma Ca^2+ (mmol/l) 8 hr (normal male SD rats; [1]) | Plasma Ca^2+ (mmol/l) 23 hr (footnote *c, 24 hr column) (normal male SD rats; [1]) | Plasma Ca^2+ (mmol/l) 27 hr (footnote *b, 24 hr) (normal male SD rats; 27 hr after single oral dose 30 μmol/kg, vehicle 10% cyclodextrin (** 1% sodium-CMC)) | Plasma Ca^2+ (mmol/l) 0 hr (normal male SD rats; [1]) | Plasma Ca^2+ (mmol/l) 24 hr (normal male SD rats; [1]) | Plasma Ca^2+ (mmol/l) 28 hr (footnote *d, 24 hr column) (normal male SD rats; 28 hr after single oral dose 30 μmol/kg, vehicle 10% cyclodextrin) | Plasma Ca^2+ (mmol/l) 48 hr (normal male SD rats; 48 hr after single oral dose 30 μmol/kg, vehicle 10% cyclodextrin) | Plasma Ca^2+ (mmol/l) 31 hr (footnote *a, 48 hr column) (normal male SD rats; 31 hr after single oral dose 30 μmol/kg, 1% sodium-CMC)
1 | 6.85 | Cc1ccc(CN(Cc2ccc(C)cc2)C(=O)CCN[C@H](C)c2cccc3ccccc23)cc1 [Compound K-2300, N1,N1-di(4-methylbenzyl)-3-{[(1R)-1-(1-naphthyl)ethyl]amino}propanamide] | 1.293 mmol/L | 1.158 mmol/L | 0.958 mmol/L | 1.022 mmol/L | 1.397*^c mmol/l |  |  |  |  |  | 
2 | 6.37 | C[C@@H](NCCCCSc1cc(Cl)c(Cl)cc1Cl)c1cccc2ccccc12 [Compound K-2281, N-[(1R)-1-(1-naphthyl)ethyl]-N-{4-[(2,4,5-trichlorophenyl)thio]butyl}amine] | 1.380 mmol/L | 1.245 mmol/L | 1.103 mmol/L | 0.993 mmol/L |  | 1.230*^b mmol/l |  |  |  |  | 
3 | 6.20 | COc1cccc(SCCCCCN[C@H](C)c2cccc3ccccc23)c1 [Compound K-2279, N-{[5-(3-methoxyphenyl)thio]pentyl}N-[(1R)-1-(1-naphthyl)ethyl]amine] | 1.200 mmol/L | 1.155 mmol/L | 1.130 mmol/L | 1.210 mmol/L |  |  | 1.443 mmol/L | 1.445 mmol/L |  |  | 
4 | 6.64 | C[C@@H](NCCCCSc1c(F)c(F)c(C(F)(F)F)c(F)c1F)c1cccc2ccccc12 [Compound K-2297, N-[(1R)-1-(1-naphthyl)ethyl]-N-(4-{[2,3,5,6-tetrafluoro-4-(trifluoromethyl)phenyl]thio}butyl)amine] | 1.393 mmol/L | 1.305 mmol/L | 1.172 mmol/L | 1.082 mmol/L |  |  |  |  |  |  | 
5 | 6.96 | C[C@@H](NCCCCSc1ccc(F)cc1)c1cccc2ccccc12 [Compound K-2263, N-{4-[(4-fluorophenyl)thio]butyl}-N-[(1R)-1-(1-naphthyl)ethyl]amine] | 1.273 mmol/L | 1.237 mmol/L | 1.212 mmol/L | 1.308 mmol/L |  |  |  |  |  |  | 
6 | 6.82 | Cc1ccc(CN(Cc2ccc(C(F)(F)F)cc2)C(=O)CCN[C@H](C)c2cccc3ccccc23)cc1 [Compound K-2299, N1-(4-methylbenzyl)-N1-[4-(trifluoromethyl)benzyl]-3-{[(1R)-1-(1-naphthyl)ethyl]amino}propanamide] | 1.287 mmol/L | 1.192 mmol/L | 0.998 mmol/L | 0.983 mmol/L | 1.382*^c mmol/l |  |  |  |  |  | 
7 | 7.23 | Cc1ccc(CN(Cc2ccc(OC(F)(F)F)cc2)C(=O)CCN[C@H](C)c2cccc3ccccc23)cc1 [Compound K-2310, N1-(4-methylbenzyl)-N1-[4-(trifluoromethoxy)benzyl]-3-{[(1R)-1-(1-naphthyl)ethyl]amino}propanamide] | 1.342 mmol/L | 1.188 mmol/L | 1.008 mmol/L | 0.943 mmol/L |  |  |  |  | 1.330*^d mmol/l |  | 
8 | 7.21 | C[C@@H](NCCCCSc1ccc(OC(F)(F)F)cc1)c1cccc2ccccc12 [Compound K-2287, N-[(1R)-1-(1-naphthyl)ethyl]-N-(4-{[4-(trifluoromethoxy)phenyl)thio]butyl)amine] | 1.180 mmol/L | 1.042 mmol/L | 0.955 mmol/L | 0.950 mmol/L |  |  |  | 1.200 mmol/L |  | 1.392 mmol/L | 
9 | 7.00 | COc1ccc(CN(Cc2ccc(C(F)(F)F)cc2)C(=O)CCN[C@H](C)c2cccc3ccccc23)cc1 [Compound K-2290, N1-(4-methoxybenzyl)-N1-[4-(trifluoromethyl)benzyl)-3-{[(1R)-1-(1-naphthyl)ethyl]amino}propanamide] | 1.428 mmol/L | 1.248 mmol/L | 1.063 mmol/L | 1.055 mmol/L |  |  |  |  |  |  | 
10 | 6.89 | C[C@@H](NCCC(=O)N(Cc1ccccc1)Cc1ccc(Cl)cc1)c1cccc2ccccc12 [Compound K-2247, N1-benzyl-N1-(4-chlorobenzyl)-3-{[(1R)-1-(1-naphthyl)ethyl]amino}propanamide] | 1.378 mmol/L | 1.298 mmol/L | 1.175 mmol/L | 1.217 mmol/L |  |  |  |  |  |  | 
11 | 7.44 | C[C@@H](NCCC(=O)N(Cc1ccc(Cl)cc1)Cc1ccc(C(F)(F)F)cc1)c1cccc2ccccc12 [Compound K-2266, N1-(4-chlorobenzyl)-N1-[(4-trifluoromethyl)benzyl]-3-{[(1R)-1-(1-naphthyl)ethyl]amino}propanamide] | 1.368 mmol/L | 1.222 mmol/L | 1.065 mmol/L | 1.045 mmol/L |  |  | 1.417 mmol/L | 1.370 mmol/L |  |  | 
12 | 6.41 | C[C@@H](NCCCCCSc1ccc(Cl)cc1)c1cccc2ccccc12 [Compound K-2027, N-{5-[(4-chlorophenyl)thio]pentyl}-N-[(1R)-1-(1-naphthyl)ethyl]amine] | 1.197 mmol/L | 1.102 mmol/L | 0.995 mmol/L | 1.048 mmol/L |  |  |  | 1.363 mmol/L |  |  | 
13 | 7.80 | C[C@@H](NCCC(=O)N(Cc1ccc(C(F)(F)F)cc1)Cc1ccc(Cl)c(Cl)c1)c1cccc2ccccc12 [Compound K-2264, N1-(3,4-dichlorobenzyl)-N1-[(4-trifluoromethyl)benzyl]-3-{[(1R)-1-(1-naphthyl)ethyl]-amino}propanamide] | 1.335 mmol/L | 1.203 mmol/L | 1.013 mmol/L | 0.998 mmol/L |  |  |  | 1.182 mmol/L |  |  | 1.240*^a mmol/l
14 | 7.28 | C[C@@H](NCCC(=O)N(Cc1ccc(OC(F)(F)F)cc1)Cc1ccc(Cl)c(Cl)c1)c1cccc2ccccc12 [Compound K-2272, N1-(3,4-dichlorobenzyl)-N1-[4-(trifluoromethoxy)benzyl)-3-{[(1R)-1-(1-naphthyl)ethyl]-amino}propanamide] | 1.382 mmol/L | 1.237 mmol/L | 1.075 mmol/L | 1.022 mmol/L |  |  |  | 1.240 mmol/L |  |  | 
